Patent US20260092179A1, “GENETICALLY MODIFIED HOST CELLS PRODUCING VIOLACEIN, ANALOGUES, AND DERIVATIVES THEREOF” (OCTARINE BIO APS, priority 2022, published 2026)

Experiments:
[1] = Stability during laundering of dyed fabrics (colour fastness, ΔE); format: physicochemical; conditions: washed at 30° c.
Protocol: (§1) In order to assess the stability and colour fastness of violacein and violacein derivatives dyed onto fabrics, dyed fabrics were subjected to a number of conditions. Fabrics were dyed according to Example 18 and colour coordinates and colour change before and after exposure to a given condition were determined as described in Example 18. To measure temperature stability, fabrics were incubated in an oven set to 80° c. for 4 h. To measure stability under acid and alkaline conditions, fabrics were fully submerged in water solutions set to pH 8 with NaOH and pH 5 with HCl and incubated at room temperature for 30 minutes. Fabrics were then incubated at 37° c. for 4 h. To measure stability during laundering, fabrics were washed at 30° c. under the “mix” setting of a Siemens IQ300 washing machine, then dried in a Siemens IQ300 dryer until dry. To measure artificial light stability, fabrics were placed under an LED lamp at room temperature for 16 h. To measure UV light stability, fabrics were placed under a UV lamp at room temperature for 1 h.

[2] = UV stability of dyed fabrics (colour fastness, ΔE); format: physicochemical; conditions: for ΔE: before vs after UV lamp, room temperature, 1 h
Protocol: as §1

[3] = Free radical scavenging ability of dyed Nylon 6,6 fabric (DPPH); format: biochemical; conditions: dyed Nylon 6,6 fabric strip
Protocol: Violacein is reported as being a potent antioxidant able to effectively scavenge free radicals. […] To test this, 1.5×1.5 cm dyed Nylon 6,6 fabric strips were incubated in the dark at room temperature for 1 h in 5 mL of a 5×10^−5 M DPPH free radical solution in 100% ethanol. Undyed Nylon 6,6 fabric strips were included as a negative control. After 1 h absorbance was measured at 517 nm and % scavenging ability calculated as above.

[4] = UV absorption capability (absorbance maxima, UV-A, UV-B, UV-C absorption) by HPLC; format: physicochemical
[5] = Acrylic, after test (UV lamp, room temperature, 1 h)
[6] = Bleached cotton, after test (UV lamp, room temperature, 1 h)
[7] = Diacetate, after test (UV lamp, room temperature, 1 h)
[8] = Nylon 6,6, after test (UV lamp, room temperature, 1 h)
[9] = Polyester, after test (UV lamp, room temperature, 1 h)
[10] = Wool, after test (UV lamp, room temperature, 1 h)

For `O=C1N=C(c2c[nH]c3ccc(O)cc23)C=C1c1c[nH]c2ccccc12` [proviolacein], the L ([1]; Acrylic, After test) was 67.87, the a ([1]; Acrylic, After test) was −1.12 and the b ([1]; Acrylic, After test) was 2.23. The L ([1]; Acrylic, Before test) was 58.81, the a ([1]; Acrylic, Before test) was 0.01 and the b ([1]; Acrylic, Before test) was 1.72. The ΔE ([1]; Acrylic, before and after the stability test) was 9.14, the L ([1]; Bleached cotton, After test) was 73 and the a ([1]; Bleached cotton, After test) was 0.55. The b ([1]; Bleached cotton, After test) was 1.68, the L ([1]; Bleached cotton, Before test) was 65.1 and the a ([1]; Bleached cotton, Before test) was 1.34. It also gave a b ([1]; Bleached cotton, Before test) of 3.23, a ΔE ([1]; Bleached cotton, before and after the stability test) of 8.09 and an L ([1]; Diacetate, After test) of 68.23. It also gave an a ([1]; Diacetate, After test) of 3.76, a b ([1]; Diacetate, After test) of 5.07 and an L ([1]; Diacetate, Before test) of 62.86. For the same molecule, the a ([1]; Diacetate, Before test) was 4.96, the b ([1]; Diacetate, Before test) was 5.09 and the ΔE ([1]; Diacetate, before and after the stability test) was 5.50. It also gave an L ([1]; Nylon 6,6, After test) of 56.92, an a ([1]; Nylon 6,6, After test) of −1.51 and a b ([1]; Nylon 6,6, After test) of −3.83. For the same molecule, the L ([1]; Nylon 6,6, Before test) was 50.65, the a ([1]; Nylon 6,6, Before test) was −1.57 and the b ([1]; Nylon 6,6, Before test) was −2.84. For the same molecule, the ΔE ([1]; Nylon 6,6, before and after the stability test) was 6.35, the L ([1]; Polyester, After test) was 72.82 and the a ([1]; Polyester, After test) was −0.46. The b ([1]; Polyester, After test) was 0.54, the L ([1]; Polyester, Before test) was 65.21 and the a ([1]; Polyester, Before test) was −1.18. It also gave a b ([1]; Polyester, Before test) of 1.47, a ΔE ([1]; Polyester, before and after the stability test) of 7.70 and an L ([1]; Wool, After test) of 72.54. For the same molecule, the a ([1]; Wool, After test) was −1.14, the b ([1]; Wool, After test) was 5.37 and the L ([1]; Wool, Before test) was 64.87. The a ([1]; Wool, Before test) was 0.09, the b ([1]; Wool, Before test) was 5 and the ΔE ([1]; Wool, before and after the stability test) was 7.78. For the same molecule, the L [2, 5] was 57.07, the a [2, 5] was 0.02 and the b [2, 5] was 1.94. For the same molecule, the L ([2]; Acrylic, before test) was 57.31, the a ([2]; Acrylic, before test) was −0.99 and the b ([2]; Acrylic, before test) was 2.73. The ΔE ([2]; Acrylic) was 1.30, the L [2, 6] was 64.92 and the a [2, 6] was 1.27. It also gave a b [2, 6] of 3.29, an L ([2]; Bleached cotton, before test) of 64.65 and an a ([2]; Bleached cotton, before test) of 0.4. For the same molecule, the b ([2]; Bleached cotton, before test) was 2.43, the ΔE ([2]; Bleached cotton) was 1.25 and the L [2, 7] was 61.92. For the same molecule, the a [2, 7] was 3.89, the b [2, 7] was 6.22 and the L ([2]; Diacetate, before test) was 61.25. The a ([2]; Diacetate, before test) was 3.87, the b ([2]; Diacetate, before test) was 4.46 and the ΔE ([2]; Diacetate) was 1.88. It also gave an L [2, 8] of 57.07, an a [2, 8] of 0.02 and a b [2, 8] of 1.94. The L ([2]; Nylon 6,6, before test) was 57.31, the a ([2]; Nylon 6,6, before test) was −0.99 and the b ([2]; Nylon 6,6, before test) was 2.73. It also gave a ΔE ([2]; Nylon 6,6) of 1.30, an L [2, 9] of 65.53 and an a [2, 9] of −1.02. The b [2, 9] was 0.99, the L ([2]; Polyester, before test) was 64.26 and the a ([2]; Polyester, before test) was −2.11. For the same molecule, the b ([2]; Polyester, before test) was 1.21, the ΔE ([2]; Polyester) was 1.69 and the L [2, 10] was 62.87. For the same molecule, the a [2, 10] was −0.07, the b [2, 10] was 5.48 and the L ([2]; Wool, before test) was 62.43. For the same molecule, the a ([2]; Wool, before test) was −0.15, the b ([2]; Wool, before test) was 5.23 and the ΔE ([2]; Wool) was 0.51. The OD517 ([3]; 1 h in the dark in 5×10^−5 M DPPH in 100% ethanol) was 1.88, the Scavenging ability % ([3]; 1 h in the dark in 5×10^−5 M DPPH, vs undyed control) was 17.27% and the “UV absorption capability in the UV-B region” value ([4]; 305 nm) was “particularly high”. The “Total UV absorption UV C (245 nm)” value ([4]; AUC of HPLC peak at 245 nm per mM) was 3142.9 (mAU · min)/mM, the “Total UV absorption UV B (305 nm)” value ([4]; AUC of HPLC peak at 305 nm per mM) was 4097.7 (mAU · min)/mM and the “Total UV absorption UV A (360 nm)” value ([4]; AUC of HPLC peak at 360 nm per mM) was 0 (mAU · min)/mM.
